The test system of data set [1] is P. falciparum NF54 (drug-sensitive strain). The experiment in a line: In vitro antiplasmodial assay (parasite lactate dehydrogenase), chloroquine-sensitive NF54 strain. The conditions noted are these: sensitive (NF54) strain of P. falciparum, pLDH assay, 48 h, mean of ≥2 independent experiments, read-out: PfNF54 IC50. The data set is classed as cell-based, Plasmodium falciparum. Here is the method:
All the synthesized molecular hybrids (6–27) were evaluated for in vitro antiplasmodial activity against the drug-sensitive strain (NF54) of P. falciparum and for cytotoxicity against the Chinese Hamster Ovary (CHO) mammalian cell line using emetine as a reference drug. Aqueous solubility was determined at pH 6.5 (Table 2).
In-vitro anti-plasmodium assay. Compounds were tested using parasite lactate dehydrogenase assay as a marker for parasite survival. The respective stock solutions of CQ diphosphate and test compounds were prepared by dissolving 2 mg/mL in distilled water (for CQ) and 100% DMSO for test compounds. The solutions were then stored at −20 °C, with further dilutions prepared on the day of the experiment. The cultures were synchronized in the ring stage as described previously using 15 mL of 5% (w/v) d-sorbitol in water. Synchronous cultures of PfNF54 (CQS) in the late trophozoite stage were prepared to 2% parasitemia and 2% hematocrit. […] Following incubation, 100 μL of MalStat reagent and 15 μL of resuspended culture were combined, followed by addition of 25 μL of nitro blue tetrazolium chloride (NBT). The plates were kept in the dark for about 10 min to fully develop, and absorbance was measured at 620 nm on a microplate reader. Raw data were exported to Microsoft Excel for dose-response analysis.

The subject of data set [2] is Chinese Hamster Ovary (CHO) mammalian cell line. The experiment in a line: Cytotoxicity MTT assay on CHO cells. The conditions noted are these: for IC50: Cricetulus griseus, CHO, Chinese hamster ovarian cell line, MTT, 48 h; for SI (selectivity index): SI = IC50 (CHO)/IC50 (PfNF54). The class given is cell-based. The procedure:
All the synthesized molecular hybrids (6–27) were evaluated for in vitro antiplasmodial activity against the drug-sensitive strain (NF54) of P. falciparum and for cytotoxicity against the Chinese Hamster Ovary (CHO) mammalian cell line using emetine as a reference drug. Aqueous solubility was determined at pH 6.5 (Table 2). Cytotoxicity assay. […] The reference standard, emetine, was prepared to 2 mg/mL in distilled water while stock solutions of test compounds were prepared to 20 mg/mL in 100% DMSO with the highest concentration of solvent to which the cells were exposed having no measurable effect on the cell viability. The initial concentration of the compounds and control was 100 μg/mL, which was serially diluted in complete medium with 10-fold dilutions to give six concentrations, the lowest being 0.001 μg/mL. Plates were incubated for 48 h with 100 μL of drug and 100 μL of cell suspension in each well and developed afterward by adding 25 μL of sterile MTT (Thermo Fisher Scientific) to each well, followed by 4 h of incubation in the dark. The plates were then centrifuged; the medium was aspirated, and 100 μL of DMSO was added to dissolve crystals before reading the absorbance at 540 nm. Data were analyzed, and the sigmoidal dose-response was derived using GraphPad Prism v 4.0 software (La Jolla). All experiments were performed for at least three independent biological repeats, each with technical triplicates.
Background: Formazan colour is commonly taken as a measure of viable cells.

A short description of data set [3]: Aqueous solubility, miniaturized shake flask method (HPLC-DAD). The class given is physicochemical. The conditions noted are these: aqueous solution, aqueous buffer, thermodynamic from solid, pH 6.5, shake flask 20 h, 25 °C. The procedure:
All the synthesized molecular hybrids (6-27) were evaluated for in vitro antiplasmodial activity against the drug-sensitive strain (NF54) of P. falciparum and for cytotoxicity against the Chinese Hamster Ovary (CHO) mammalian cell line using emetine as a reference drug. Aqueous solubility was determined at pH 6.5 (Table 2). Aqueous solubility. Water solubility was analyzed using a miniaturized shake flask method. Ten millimolar stock solutions of each of the compounds were used to prepare calibration standards (10-220 μM) in DMSO. The same 10 mM stock solutions were accurately dispensed in duplicate into 96-well plates, and the DMSO, dried down ([…],90 min, 37 °C). Thereafter, the samples were reconstituted (200 μM) in an aqueous solution and shaken (20 h, 25 °C). The solutions were analyzed by means of HPLC-DAD (Agilent1200 Rapid Resolution HPLC with a diode array detector). Best fit calibration curves were constructed using the calibration standards, which were used to determine the aqueous samples' solubility.

Converted amounts (≈) assume the structure as drawn. Where two headings read alike, the source gives them in different places.

With `COc1ccc(/C=C/C(=O)c2ccc(S(=O)(=O)NCCNc3ccnc4cc(Cl)ccc34)cc2)cc1OC` [Compound 19, (E)-N-(2-((7-chloroquinolin-4-yl)amino)ethyl)-4-(3-(3,4-dimethoxyphenyl)acryloyl)benzenesulfonamide], the melting point (in general, the temperature, or range, at which the solid turns liquid) is 223 to 225 °C. The half-maximal inhibitory concentration (IC50) (commonly the concentration at which inhibition is half-maximal) in data set [1] (Plasmodium falciparum) is 0.33 µM. Moreover, in data set [2], the IC50 worked out at 45.1 µM and the “SI (selectivity index)” value amounted to 136.7.
`O=C(/C=C/c1ccc(F)c(F)c1)c1ccc(S(=O)(=O)NCCCNc2ccnc3cc(Cl)ccc23)cc1` [Compound 13, (E)-N-(3-((7-chloroquinolin-4-yl)amino)propyl)-4-(3-(3,4-difluorophenyl)acryloyl)benzenesulfonamide] had a melting point of 212 to 214 °C. In addition, in data set [1] (Plasmodium falciparum), the IC50 was 2.58 µM. For the same compound, in data set [2], the IC50 was more than 300 µM and the “SI (selectivity index)” value is reported as more than 116. In addition, in data set [3], the solubility (in general, the concentration that dissolves in the medium under given conditions) at 20 h is less than 5 µM.
In turn, `CC[C@H]1CN2CCc3cc(OC)c(OC)cc3[C@@H]2C[C@@H]1C[C@H]1NCCc2cc(OC)c(OC)cc21` [Emetine, emetine, reference compound] gave an IC50 in data set [2] of 0.0034 µM.
Compound `O=C(/C=C/c1ccccc1F)c1ccc(S(=O)(=O)NCCCNc2ccnc3cc(Cl)ccc23)cc1` [Compound 15, (E)-N-(3-((7-chloroquinolin-4-yl)amino)propyl)-4-(3-(2-fluorophenyl)acryloyl)benzenesulfonamide] gave a melting point of 223 to 225 °C. In data set [1] (Plasmodium falciparum), the IC50 came to 0.86 µM. Also, in data set [2], the IC50 was found to be 45.5 µM and the “SI (selectivity index)” value came to 52.9. Further, in data set [3], the concentration in solution (solubility at 20 h) came to 5 µM (≈ 2.62 µg/mL).
In turn, `O=C(/C=C/c1ccc(F)cc1)c1ccc(S(=O)(=O)NCCCNc2ccnc3cc(Cl)ccc23)cc1` [Compound 9, (E)-N-(3-((7-chloroquinolin-4-yl)amino)propyl)-4-(3-(4-fluorophenyl)acryloyl)benzenesulfonamide] registered a melting point of 216 to 218 °C. Further, the half-maximal inhibitory concentration (IC50) in data set [1] (Plasmodium falciparum) came to 0.28 µM. In data set [2], the IC50 worked out at 14.7 µM and the “SI (selectivity index)” value was found to be 52.5. In addition, the solubility at 20 h in data set [3] is less than 5 µM.
Consider `O=C(/C=C/c1c(F)cccc1F)c1ccc(S(=O)(=O)NCCCNc2ccnc3cc(Cl)ccc23)cc1` [Compound 10, (E)-N-(3-((7-chloroquinolin-4-yl)amino)propyl)-4-(3-(2,6-difluorophenyl)acryloyl)benzenesulfonamide], for which the melting point was in the range of 223 to 225 °C. Also, the IC50 in data set [1] (Plasmodium falciparum) turned out to be 0.54 µM. Besides, in data set [2], the IC50 was 27.6 µM and the “SI (selectivity index)” value is given as 51.1. In data set [3], this compound had a solubility at 20 h of less than 5 µM.
Consider `O=C(/C=C/c1ccco1)c1ccc(S(=O)(=O)NCCCNc2ccnc3cc(Cl)ccc23)cc1` [Compound 21, (E)-N-(3-((7-chloroquinolin-4-yl)amino)propyl)-4-(3-(furan-2-yl)acryloyl)benzenesulfonamide], for which the melting point lay within 222 to 224 °C. The IC50 in data set [1] (Plasmodium falciparum) came out at 4.45 µM. Moreover, in data set [2], the IC50 is more than 50 µM and the “SI (selectivity index)” value is listed as more than 11. Further, in data set [3], the concentration in solution (solubility at 20 h) came to 200 µM (≈ 99.2 µg/mL).
`CC(=O)c1ccc(S(=O)(=O)NCCCNc2ccnc3cc(Cl)ccc23)cc1` [Compound 5, 4-acetyl-N-(3-((7-chloroquinolin-4-yl)amino)propyl)benzenesulfonamide] came in with a melting point of 181 to 183 °C. Moreover, in data set [1] (Plasmodium falciparum), the 50% inhibitory concentration (IC50) is 0.48 µM. In data set [2], the IC50 was more than 50 µM and the “SI (selectivity index)” value was more than 104. This compound had a solubility at 20 h in data set [3] of less than 5 µM.
Compound `Cc1ccc(/C=C/C(=O)c2ccc(S(=O)(=O)NCCNc3ccnc4cc(Cl)ccc34)cc2)cc1` [Compound 22, (E)-N-(2-((7-chloroquinolin-4-yl)amino)ethyl)-4-(3-(p-tolyl)acryloyl)benzenesulfonamide] returned a melting point of 184 to 187 °C. In addition, the half-maximal inhibitory concentration (IC50) in data set [1] (Plasmodium falciparum) came out at 0.39 µM. Also, in data set [2], the IC50 amounted to 24.9 µM and the “SI (selectivity index)” value worked out at 63.8. In addition, the solubility at 20 h in data set [3] was found to be 190 µM (≈ 96.1 µg/mL).
In the case of `O=C(C=Cc1ccccc1)c1ccc(S(=O)(=O)NCCCNc2ccnc3cc(Cl)ccc23)cc1` [Compound 6, N-(3-((7-chloroquinolin-4-yl)amino)propyl)-4-cinnamoylbenzenesulfonamide], the melting point lay in the range of 210 to 212 °C. Also, the IC50 in data set [1] (Plasmodium falciparum) worked out at 1.67 µM. Also, in data set [2], the IC50 was more than 50 µM and the “SI (selectivity index)” value is more than 29.
The compound `COc1ccc(/C=C/C(=O)c2ccc(S(=O)(=O)NCCNc3ccnc4cc(Cl)ccc34)cc2)cc1` [Compound 17, (E)-N-(2-((7-chloroquinolin-4-yl)amino)ethyl)-4-(3-(4-methoxyphenyl)acryloyl)benzenesulfonamide] showed a melting point of 222 to 225 °C. For the same compound, in data set [1] (Plasmodium falciparum), the IC50 stood at 0.49 µM. Besides, in data set [2], the IC50 was determined as 17.5 µM and the “SI (selectivity index)” value is on record as 35.7. In data set [3], the solubility at 20 h is 185 µM (≈ 96.6 µg/mL).
With `O=C(/C=C/c1ccc(F)cc1)c1ccc(S(=O)(=O)NCCNc2ccnc3cc(Cl)ccc23)cc1` [Compound 24, (E)-N-(2-((7-chloroquinolin-4-yl)amino)ethyl)-4-(3-(4-fluorophenyl)acryloyl)benzenesulfonamide], the melting point was 222 to 224 °C. Further, in data set [1] (Plasmodium falciparum), the IC50 was determined as 0.57 µM. In data set [2], half-maximal inhibition (IC50) required 14.5 µM and the “SI (selectivity index)” value is listed as 25.5. The compound also came in with a solubility at 20 h in data set [3] of less than 5 µM.
In the same order, the values of `O=C(/C=C/c1ccccc1Cl)c1ccc(S(=O)(=O)NCCNc2ccnc3cc(Cl)ccc23)cc1` [Compound 25, (E)-4-(3-(2-chlorophenyl)acryloyl)-N-(2-((7-chloroquinolin-4-yl)amino)ethyl)benzenesulfonamide] are 209 to 211 °C, 0.37 µM, 35.4 µM, 95.7 and 19 µM (≈ 10 µg/mL).
In turn, `O=C(/C=C/c1cc(F)ccc1F)c1ccc(S(=O)(=O)NCCCNc2ccnc3cc(Cl)ccc23)cc1` [Compound 20, (E)-N-(3-((7-chloroquinolin-4-yl)amino)propyl)-4-(3-(2,5-difluorophenyl)acryloyl)benzenesulfonamide] displayed a melting point of 219 to 221 °C. In addition, the IC50 in data set [1] (Plasmodium falciparum) was 0.79 µM. Also, in data set [2], half-maximal inhibition (IC50) was put at 43.7 µM and the “SI (selectivity index)” value is recorded as 55.3.
Taken in the same sequence, the figures for `COc1ccc(/C=C/C(=O)c2ccc(S(=O)(=O)NCCCNc3ccnc4cc(Cl)ccc34)cc2)cc1OC` [Compound 14, (E)-N-(3-((7-chloroquinolin-4-yl)amino)propyl)-4-(3-(3,4-dimethoxyphenyl)acryloyl)benzenesulfonamide] were 222 to 224 °C, 0.32 µM, 43.4 µM and 135.6.
In the case of “(E)-N-(2-((7-chloroquinolin-4-yl)amino)ethyl)-4-(3-ferrocenyl)acryloyl)benzenesulfonamide [Compound 23]”, the IC50 in data set [1] is 1.53 µM.
In the case of `O=C(/C=C/c1ccc(OC(F)(F)F)cc1)c1ccc(S(=O)(=O)NCCCNc2ccnc3cc(Cl)ccc23)cc1` [Compound 27, (E)-N-(3-((7-chloroquinolin-4-yl)amino)propyl)-4-(3-(4-(trifluoromethoxy)phenyl)acryloyl)benzenesulfonamide], the melting point is 223 to 225 °C. For the same compound, the IC50 in data set [1] (Plasmodium falciparum) came out at 0.51 µM. Also, in data set [2], the IC50 worked out at 44 µM and the “SI (selectivity index)” value is on record as 86.3.

The record behind these values is publication PMC8272121, “Synthesis and Evaluation of Chalcone-Quinoline Based Molecular Hybrids as Potential Anti-Malarial Agents” (Molecules, 2021).
